# Experimental data taken from ChEMBL document CHEMBL4665836, “Overcoming β-Lactam resistance in Pseudomonas aeruginosa using non-canonical tobramycin-based antibiotic adjuvants” (2020).
# Key:
# Format in all cases: functional
# [1] = test system: Pseudomonas aeruginosa; assay: Potentiation of imipenem-induced antibacterial activity against carbapenem-resistant Pseudomonas aeruginosa 107092 clinical isolate assessed as fold reduction in imipenem MIC at 8 uM in presence of beta-lactamase inhibitor, rele-bactam
# [2] = test system: Pseudomonas aeruginosa; assay: Potentiation of aztreonam-induced antibacterial activity against carbapenem-resistant Pseudomonas aeruginosa 86052 clinical isolate assessed as fold reduction in aztreonam MIC at 8 uM in presence of beta-lactamase inhibitor, avi-bactam
# [3] = test system: Pseudomonas aeruginosa; assay: Potentiation of aztreonam-induced antibacterial activity against carbapenem-resistant Pseudomonas aeruginosa 88949 clinical isolate assessed as fold reduction in aztreonam MIC at 8 uM in presence of beta-lactamase inhibitor, avi-bactam
# [4] = test system: Pseudomonas aeruginosa; assay: Potentiation of ceftazidime-induced antibacterial activity against carbapenem-resistant Pseudomonas aeruginosa 86052 clinical isolate assessed as fold reduction in ceftazidime MIC at 8 uM in presence of beta-lactamase inhibitor, avi-bactam
# [5] = test system: Pseudomonas aeruginosa; assay: Potentiation of ceftazidime-induced antibacterial activity against carbapenem-resistant Pseudomonas aeruginosa 88949 clinical isolate assessed as fold reduction in ceftazidime MIC at 8 uM in presence of beta-lactamase inhibitor, avi-bactam
# [6] = test system: Pseudomonas aeruginosa; assay: Potentiation of ceftazidime-induced antibacterial activity against carbapenem-resistant Pseudomonas aeruginosa 109084 clinical isolate assessed as fold reduction in ceftazidime MIC at 8 uM in presence of beta-lactamase inhibitor, avi-bactam
# [7] = test system: Pseudomonas aeruginosa; assay: Potentiation of imipenem-induced antibacterial activity against carbapenem-resistant Pseudomonas aeruginosa PAO750 harboring mexAB-oprM/mexCD-oprJ/mexEF-oprN/mexJK/mexXY/opmH efflux deficient mutant assessed as imipenem MIC at 8 uM by checkerboard assay (reference value: 4 ug/ml)
# [8] = test system: Pseudomonas aeruginosa; assay: Potentiation of imipenem-induced antibacterial activity against carbapenem-resistant Pseudomonas aeruginosa PAO200 harboring mexAB-oprM efflux deficient mutant assessed as imipenem MIC at 8 uM by checkerboard assay (reference value: 4 ug/ml)
# [9] = test system: Pseudomonas aeruginosa; assay: Potentiation of imipenem-induced antibacterial activity against carbapenem-resistant Pseudomonas aeruginosa 109084 clinical isolate assessed as imipenem MIC at 8 uM by checkerboard assay (reference value: 16 ug/ml)
# [10] = test system: Pseudomonas aeruginosa; assay: Potentiation of imipenem-induced antibacterial activity against carbapenem-resistant Pseudomonas aeruginosa 108590 clinical isolate assessed as imipenem MIC at 8 uM by checkerboard assay (reference value: 16 ug/ml)
# [11] = test system: Pseudomonas aeruginosa; assay: Potentiation of imipenem-induced antibacterial activity against carbapenem-resistant Pseudomonas aeruginosa 107092 clinical isolate assessed as imipenem MIC at 8 uM by checkerboard assay (reference value: 64 ug/ml)
# [12] = test system: Pseudomonas aeruginosa; assay: Potentiation of imipenem-induced antibacterial activity against carbapenem-resistant Pseudomonas aeruginosa 88949 clinical isolate assessed as imipenem MIC at 8 uM by checkerboard assay (reference value: 64 ug/ml)
# [13] = test system: Pseudomonas aeruginosa; assay: Potentiation of imipenem-induced antibacterial activity against carbapenem and colistin-resistant Pseudomonas aeruginosa 114228 clinical isolate assessed as imipenem MIC at 8 uM by checkerboard assay (reference value: 8 ug/ml)
# [14] = test system: Pseudomonas aeruginosa; assay: Potentiation of imipenem-induced antibacterial activity against carbapenem-resistant Pseudomonas aeruginosa 100036 clinical isolate assessed as imipenem MIC at 8 uM by checkerboard assay (reference value: 8 ug/ml)
# [15] = test system: Pseudomonas aeruginosa; assay: Potentiation of imipenem-induced antibacterial activity against carbapenem-resistant Pseudomonas aeruginosa 86052 clinical isolate assessed as imipenem MIC at 8 uM by checkerboard assay (reference value: 32 ug/ml)
# [16] = test system: Pseudomonas aeruginosa; assay: Potentiation of imipenem-induced antibacterial activity against wild-type Pseudomonas aeruginosa PAO1 assessed as imipenem MIC at 8 uM by checkerboard assay (reference value: 4 ug/ml)
# [17] = test system: Pseudomonas aeruginosa; assay: Potentiation of ceftazidime-induced antibacterial activity against carbapenem-resistant Pseudomonas aeruginosa 107092 clinical isolate assessed as ceftazidime MIC at 8 uM by checkerboard assay (reference value: 128 ug/ml)
# [18] = test system: Pseudomonas aeruginosa; assay: Potentiation of ceftazidime-induced antibacterial activity against carbapenem-resistant Pseudomonas aeruginosa 86052 clinical isolate assessed as ceftazidime MIC at 8 uM by checkerboard assay (reference value: 64 ug/ml)
# [19] = test system: Pseudomonas aeruginosa; assay: Potentiation of ceftazidime-induced antibacterial activity against carbapenem and colistin-resistant Pseudomonas aeruginosa 91433 clinical isolate assessed as ceftazidime MIC at 8 uM by checkerboard assay (reference value: 4 ug/ml)
# [20] = test system: Pseudomonas aeruginosa; assay: Potentiation of ceftazidime-induced antibacterial activity against carbapenem-resistant Pseudomonas aeruginosa 264-104354 clinical isolate assessed as ceftazidime MIC at 8 uM by checkerboard assay (reference value: 128 ug/ml)
# [21] = test system: Pseudomonas aeruginosa; assay: Potentiation of ceftazidime-induced antibacterial activity against carbapenem-resistant Pseudomonas aeruginosa 260-97103 clinical isolate assessed as ceftazidime MIC at 8 uM by checkerboard assay (reference value: 32 ug/ml)
# [22] = test system: Pseudomonas aeruginosa; assay: Potentiation of aztreonam-induced antibacterial activity against carbapenem-resistant Pseudomonas aeruginosa PAO750 harboring mexAB-oprM/mexCD-oprJ/mexEF-oprN/mexJK/mexXY/opmH efflux deficient mutant assessed as aztreonam MIC at 8 uM by checkerboard assay (reference value: 0.5 ug/ml)
# [23] = test system: Pseudomonas aeruginosa; assay: Potentiation of aztreonam-induced antibacterial activity against carbapenem-resistant Pseudomonas aeruginosa PAO200 harboring mexAB-oprM efflux deficient mutant assessed as aztreonam MIC at 8 uM by checkerboard assay (reference value: 0.25 ug/ml)
# [24] = test system: Pseudomonas aeruginosa; assay: Potentiation of aztreonam-induced antibacterial activity against carbapenem-resistant Pseudomonas aeruginosa 86052 clinical isolate assessed as aztreonam MIC at 8 uM by checkerboard assay (reference value: 64 ug/ml)
# [25] = test system: Pseudomonas aeruginosa; assay: Potentiation of aztreonam-induced antibacterial activity against carbapenem and colistin-resistant Pseudomonas aeruginosa 114228 clinical isolate assessed as aztreonam MIC at 8 uM by checkerboard assay (reference value: 32 ug/ml)
# [26] = test system: Pseudomonas aeruginosa; assay: Potentiation of aztreonam-induced antibacterial activity against carbapenem-resistant Pseudomonas aeruginosa 101885 clinical isolate assessed as aztreonam MIC at 8 uM by checkerboard assay (reference value: 16 ug/ml)
# [27] = test system: Pseudomonas aeruginosa; assay: Potentiation of aztreonam-induced antibacterial activity against carbapenem-resistant Pseudomonas aeruginosa 262-101856 clinical isolate assessed as aztreonam MIC at 8 uM by checkerboard assay (reference value: 32 ug/ml)
# [28] = test system: Pseudomonas aeruginosa; assay: Antibacterial activity against Pseudomonas aeruginosa PAO750 harboring mexAB-oprM/mexCD-oprJ/mexEF-oprN/mexJK/mexXY/opmH efflux deficient mutant
# [29] = test system: Pseudomonas aeruginosa; assay: Potentiation of ceftazidime-induced antibacterial activity against carbapenem-resistant Pseudomonas aeruginosa 259-96918 clinical isolate expressing metallo-beta-lactamase assessed as ceftazidime MIC at 8 uM by checkerboard assay (reference value: 512 ug/ml)
# [30] = test system: Pseudomonas aeruginosa; assay: Potentiation of aztreonam-induced antibacterial activity against wild type Pseudomonas aeruginosa PAO1 assessed as fold reduction in aztreonam MIC at 8 uM
# [31] = test system: Pseudomonas aeruginosa; assay: Potentiation of imipenem-induced antibacterial activity against wild type Pseudomonas aeruginosa PAO1 assessed as fold reduction in imipenem MIC at 8 uM
# [32] = test system: Pseudomonas aeruginosa; assay: Potentiation of piperacillin-induced antibacterial activity against wild type Pseudomonas aeruginosa PAO1 assessed as fold reduction in piperacillin MIC at 8 uM
SMILES,fold change (FC) [1],fold change (FC) [2],fold change (FC) [3],fold change (FC) [4],fold change (FC) [5],fold change (FC) [6],MIC [7],MIC [8],MIC [9],MIC [10],MIC [11],MIC [12],MIC [13],MIC [14],MIC [15],MIC [16],MIC [17],MIC [18],MIC [19],MIC [20],further results
NC[C@H]1O[C@H](O[C@H]2[C@H](OCCCCc3cn(CCCCO[C@@H]4[C@@H](O)[C@H](N)C[C@H](N)[C@H]4O[C@H]4O[C@H](CN)[C@@H](O)C[C@H]4N)nn3)[C@@H](O)[C@H](N)C[C@@H]2N)[C@H](N)C[C@@H]1O.O=C(O)C(F)(F)F.O=C(O)C(F)(F)F.O=C(O)C(F)(F)F.O=C(O)C(F)(F)F.O=C(O)C(F)(F)F.O=C(O)C(F)(F)F.O=C(O)C(F)(F)F.O=C(O)C(F)(F)F,16,16,16,16,16,16,2 µg/mL,1 µg/mL,16 µg/mL,8 µg/mL,32 µg/mL,32 µg/mL,4 µg/mL,4 µg/mL,16 µg/mL,2 µg/mL,128 µg/mL,64 µg/mL,0.5 µg/mL,32 µg/mL,MIC [21]: 16 µg/mL; MIC [22]: 0.25 µg/mL; MIC [23]: 0.06 µg/mL; MIC [24]: 32 µg/mL; MIC [25]: 16 µg/mL; MIC [26]: 4 µg/mL; MIC [27]: 16 µg/mL; MIC [28]: 128 µg/mL; MIC [29]: 128 µg/mL; fold change (FC) [30]: 2; fold change (FC) [31]: 2; fold change (FC) [32]: 2
N=C(N)NC[C@H]1O[C@H](O[C@H]2[C@H](OCCCCCCCCCCCCN3CCN(c4cc5c(cc4F)c(=O)c(C(=O)O)cn5C4CC4)CC3)[C@@H](O[C@H]3O[C@H](CO)[C@@H](O)[C@H](NC(=N)N)[C@H]3O)[C@H](NC(=N)N)C[C@@H]2NC(=N)N)[C@H](NC(=N)N)C[C@@H]1O.O=C(O)C(F)(F)F.O=C(O)C(F)(F)F.O=C(O)C(F)(F)F.O=C(O)C(F)(F)F.O=C(O)C(F)(F)F.O=C(O)C(F)(F)F,16,16,16,16,16,16,1 µg/mL,2 µg/mL,16 µg/mL,4 µg/mL,32 µg/mL,64 µg/mL,1 µg/mL,4 µg/mL,16 µg/mL,1 µg/mL,32 µg/mL,32 µg/mL,4 µg/mL,128 µg/mL,MIC [21]: 16 µg/mL; MIC [22]: 0.06 µg/mL; MIC [23]: 0.06 µg/mL; MIC [24]: 32 µg/mL; MIC [25]: 8 µg/mL; MIC [26]: 4 µg/mL; MIC [27]: 32 µg/mL; MIC [28]: 16 µg/mL; MIC [29]: 512 µg/mL; fold change (FC) [30]: 2; fold change (FC) [31]: 2; fold change (FC) [32]: 2
